Values after ≈ are worked out from the molar mass of the structure shown.
How the values were obtained:
[1] = system: HSV-1 and HSV-2; details: added to lidocaine or lidocaine hydrochloride; Haines et al.; cited from earlier work
[2] = system: HSV Early Gene Expression; test: Transient Expression Assay for Effects Against HSV Early Gene Expression (β Galactosidase Assay or βgal); format: cell-based; details: read-out: βgal
Description: (§1) The compound toxicity assay (3H-LEU), Plaque Reduction Assay for HSV Antiviral Activity (Plaque), and Transient Expression Assay for Effects Against HSV Early Gene Expression (β Galactosidase Assay or βgal) were carried out as set forth in U.S. Pat. No. 5,175,151 which is hereby incorporated by reference.

[3] = compound toxicity assay (3H-LEU); format: cell-based
Description: as §1

[4] = system: HSV; test: Plaque Reduction Assay for HSV Antiviral Activity (Plaque); format: cell-based
Description: as §1

[5] = system: HSV-1; details: U.S. Pat. No. 4,757,088; cited from earlier work
[6] = system: HSV-2; details: U.S. Pat. No. 4,757,088; cited from earlier work
[7] = system: herpes virus; details: U.S. Pat. No. 4,757,088; cited from earlier work
[8] = system: HSV; details: Haines et al.; cited from earlier work

For `CC(C)(CO)[C@@H](O)C(=O)NCCC(=O)O` [panthothenic acid], the “antiviral activity of lidocaine or lidocaine hydrochloride on addition of the substance” value [1] is listed as “significantly enhances”.

With `CCCCCCCn1nc(C)c2c(OC(C)=O)c3cc(OC)ccc3nc21` [I] the IC50 [2] was 2.8 µg/mL (≈ 7.58 µM) and the CC50 [3] was under 1 µg/mL.

`CC(=O)Oc1ccc2nc3c(c(C)nn3C(C)=O)c(O)c2c1` [B] showed an IC50 [2] of 8 µg/mL (≈ 26.7 µM) and a CC50 [3] of 15 µg/mL (≈ 50.1 µM).

`CCC(=O)Oc1ccc2nc3[nH]nc(C)c3c(OC(=O)CC)c2c1` [D] gave an IC50 [2] of 11 µg/mL (≈ 33.6 µM).

Compound `CC(=O)Oc1c2cc(F)ccc2nc2[nH]nc(C)c12` [G] has an IC50 [2] of 3 µg/mL (≈ 11.6 µM) and a CC50 [3] of 43 µg/mL (≈ 166 µM).

`CC(=O)n1nc(C)c2c(O)c3cc(F)ccc3nc21` [H] gave an IC50 [2] of 2 µg/mL (≈ 7.71 µM) and a CC50 [3] of 32 µg/mL (≈ 123 µM).

`C=CCOc1ccc2nc3c(c(C)nn3CC=C)c(O)c2c1` [R] gave an IC50 [2] of 20 µg/mL (≈ 67.7 µM) and an IC50 [4] of 20 µg/mL (≈ 67.7 µM).

For `CCN(CC)CC(=O)Nc1c(C)cccc1C` [lidocaine, 2-(diethylamino)-N-(2,6-dimethylphenyl)acetamide], the “antiviral activity in cell culture against HSV-1” value [5] is given as “antiviral agent”, the “antiviral activity in cell culture against HSV-2” value [6] is given as “antiviral agent” and the “treatment of herpes virus infections of mammals” value [7] is given as “able to treat herpes virus infections of mammals”. For the same compound, the “treatment of HSV oral and genital lesions in humans” value [8] was “particularly effective”.

With `COc1ccc2nc3[nH]nc(C)c3c(OCCN(C)C)c2c1` [O] the IC50 [2] was 1.4 µg/mL (≈ 4.66 µM), the IC50 [4] was 0.7 µg/mL (≈ 2.33 µM) and the CC50 [3] was 5.4 µg/mL (≈ 18 µM).

Compound `COc1cccc2c(O)c3c(C)nn(C(C)=O)c3nc12` [N] has an IC50 [2] of 3 µg/mL (≈ 11.1 µM) and a CC50 [3] of 100 µg/mL (≈ 369 µM).

In the case of `CC(C)(CO)[C@@H](O)C(=O)NCCCO` [dexpanthenol], the “antiviral activity of lidocaine or lidocaine hydrochloride on addition of the substance” value [1] is given as “significantly enhances”.

Compound `COc1ccc2nc3[nH]nc(C)c3c(OCCN3CCOCC3)c2c1` [Q] has an IC50 [2] of 20 µg/mL (≈ 58.4 µM) and an IC50 [4] of 20 µg/mL (≈ 58.4 µM).

Compound `CCCCCCCn1nc(C)c2c(OC(C)=O)c3cc(C)ccc3nc21` [M] has an IC50 [2] of 3 µg/mL (≈ 8.49 µM) and a CC50 [3] of under 1 µg/mL.

`COc1ccc2nc3c(c(C)nn3CCCO)c(OC)c2c1` [P] showed an IC50 [2] of 7.2 µg/mL (≈ 23.9 µM) and an IC50 [4] of over 20 µg/mL.

`CC(=O)n1nc(C)c2c(O)c3cc(C)ccc3nc21` [J] showed an IC50 [2] of 9 µg/mL (≈ 35.3 µM) and a CC50 [3] of 100 µg/mL (≈ 392 µM).

`COc1ccc2nc3c(c(C)nn3C(C)=O)c(O)c2c1` [E] gave an IC50 [2] of 3 µg/mL (≈ 11.1 µM) and a CC50 [3] of 23 µg/mL (≈ 84.8 µM).

For `COc1cc(C)c2[nH]c3c(c(C)nn3C(C)=O)c(=O)c2c1` [K], the IC50 [2] was 5 µg/mL (≈ 17.5 µM) and the CC50 [3] was over 100 µg/mL.

For `CC(=O)Oc1ccc2nc3[nH]nc(C)c3c(OC(C)=O)c2c1` [A], the IC50 [2] was 3 µg/mL (≈ 10 µM) and the CC50 [3] was 14 µg/mL (≈ 46.8 µM).

With `CC(=O)n1nc(C)c2c(O)c3cc(Cl)ccc3nc21` [F] the IC50 [2] was 9 µg/mL (≈ 32.6 µM) and the CC50 [3] was 37 µg/mL (≈ 134 µM).

In the case of `CCCCCCCn1nc(C)c2c(=O)c3cc(C)ccc3[nH]c21` [L], the IC50 [2] is reported as 3 µg/mL (≈ 9.63 µM) and the CC50 [3] is reported as 3.4 µg/mL (≈ 10.9 µM).

For `CCCCC(=O)Oc1ccc2nc3[nH]nc(C)c3c(OC(=O)CCCC)c2c1` [C], the IC50 [2] was 5 µg/mL (≈ 13 µM) and the CC50 [3] was 5 µg/mL (≈ 13 µM).
